{
  "source": "patent US6326402A",
  "about": "“Methods for treating viral infections using a compound capable of inhibiting microtubules” (Octamer, Inc., priority 1998, dated 2001)",
  "key": {"viral replication": {"test_system": "viral replication", "assay": "Anti-viral activity of DIME analogues and homologues (cellular assays and in vivo)", "format": "cell-based"}, "human cancer cells": {"test_system": "human cancer cells", "conditions": "relative to DIME; U.S. Ser. Nos. 08/655,267 and 08/833,272; cited from earlier work"}, "[1]": {"assay": "Toxicity, daily oral dosing of nude mice", "format": "in vivo", "conditions": "1 g/kg daily, 12-15 days", "description": "Ten nude mice were administered a daily oral dose of ^14 C-labeled DIME (Compound 1) (1.0 g/kg, 0.1 ml, in corn oil) for a period of 12-15 days."}, "[2]": {"assay": "Toxicity to human white cells", "format": "cell-based", "conditions": "white blood cells", "description": "(§1) Nocodazole is a well known antitubulin drug. It is highly toxic. Thus, we established a concentration that is relatively harmless to human white cells, i.e. between 0.1 and 1 μM. At […] , nocodazole depressed HIV production by 40% thereby simulating the action of DIME. However DIME is completely nontoxic up to about 320 μM."}, "tumor cells": {"test_system": "tumor cells", "conditions": "cited from earlier work"}, "[3]": {"assay": "Serum half-life and bioavailability of 14C-labeled DIME in mice", "format": "in vivo", "description": "Mice were orally dosed with 126 mg/kg 14C-labeled DIME (Compound 1). After dosing, blood sampling times were 15 and 30 minutes and 1, 2, 4, 6, 8 and 24 hours. Aliquots (50 μL) of blood were assayed in a liquid scintillation counter and data expressed as microgram-equivalents per mL.\nThe blood level data were analyzed by the RSTRIP method (Micromath, Salt Lake City, Utah). Parallel groups of mice were dosed intravenously with 24.5 mg/kg 14C-labeled DIME and blood sampling times were 10, 20 and 30 minutes and 1, 2, 4, 6 and 8 hours."}, "[4]": {"test_system": "MDA-MB-231 (human mammary cancer) cells", "assay": "MDA-MB-231 xenografts in nude mice, tumor volume", "format": "in vivo, human tumor xenograft in nude mice", "source_text": "The ability of human tumors to grow as xenografts in athymic mice (e.g., nude mice) provides a useful in vivo model for studying the biological response to therapies for human tumors. Since the first successful xenotransplantation of human tumors into athymic mice ([…] et al., 1969, Acta Pathol. Microbial. Scand. 77:758-760), many different human tumor cell lines (e.g., mammary, lung, genitourinary, gastrointestinal, head and neck, glioblastoma, bone and malignant melanomas) have been successfully transplanted and grown into nude mice. Human mammary tumor cell lines, including MCF-7, ZR75-1 and MDA-MB-23 1, have been established as subcutaneous grafts in nude mice (Warri et al., 1991, Intl. J. Cancer 49:616-23; Ozzello et al., 1980, Eur. J. Cancer 16:553-559; Osbourne et al., 1985, Cancer Res. 45:584-590; Siebert et al., 1983, Cancer Res. 43:2223-2239). […] Experimental Protocol MDA-MB-231 (human mammary cancer) cells were obtained from American Type Culture Collection (Rockville, Md.) and maintained in the recommended growth media. Twenty nude mice were each inoculated subcutaneously with MDA-MB-231 cells (10^6 cells/100 […]). To one group of ten mice, DIME was administered by gavage (250 mg/kg, 10 mL/kg in corn oil) once […] per day, 5 days per week, for a total of 32 days. The other (control) group of ten mice was given administered vehicle only according to the same dosing schedule. Tumors were measured twice weekly using a Vernier caliper, and the mean tumor volume was determined at each time point. Comparisons between groups were made using an unpaired, two-tailed t-test and the results were analyzed using analysis of variance."}, "tubulin [5]": {"test_system": "tubulin", "conditions": "cited from earlier work"}, "[6]": {"test_system": "uptake of iodine into the thyroid", "conditions": "cited from earlier work"}, "[7]": {"test_system": "HIV-1 (strains HIV-, 89.6 and HIV-1 SF162)", "assay": "HIV replication in stimulated human lymphocytes (reverse transcriptase assay)", "format": "cell-based, HIV-1 in human lymphocytes", "description": "Inhibition of HIV replication in human white cells by DIME\nLymphocytes were obtained from the Sacramento Blood Bank. After stimulation of cells with phytohaemagglutinine for 3 days, cells were exposed to varying concentrations of DIME (see abscissa of FIG. 1) and incubated for 2 hours at 37° C., 5% CO2, followed by the addition of 3.2×10^5 TCID50 HIV-1 viruses (strains HIV-, 89.6 and HIV-1 SF162). Viral growth was allowed to proceed for 3 days.\nas §1"}, "tubulin [8]": {"test_system": "tubulin", "conditions": "cited from earlier work", "remark": "listed apart in the source"}, "HIV harboring cells": {"test_system": "HIV harboring cells", "format": "in vitro ADME, human"}, "[9]": {"test_system": "non-malignant mouse pituitary adenoma", "conditions": "in vivo; cited from earlier work"}, "apoptosis": {"test_system": "apoptosis", "conditions": "disruption of microtubules; cited from earlier work"}, "tadpole metamorphosis": {"test_system": "tadpole metamorphosis", "conditions": "as determined by tadpole metamorphosis; cited from earlier work"}, "human white cells": {"test_system": "human white cells", "conditions": "cited from earlier work"}, "[10]": {"test_system": "Ras and apoptosis-regulating kinases (ASK1), JNK pathway, MEKK1/SEK1 and c-Jun/AP-1", "conditions": "cited from earlier work"}, "[11]": {"conditions": "compared with vincristine; cited from earlier work"}},
  "note": "Entries after “also recorded” stand apart in the source; their conditions may differ. Where two headings read alike, the source gives them in different places.",
  "data": [
    {"smiles": "CCCOc1ccc(Oc2c(I)cc(C(=O)OC)cc2I)cc1", "note": "[Compound 3, Methyl 3,5-diiodo-4-(4'-n-propoxyphenoxy)benzoate]", "values": [
      {"measurement": "anti-viral activity", "setting": "viral replication", "result": "inactive"}
    ]},
    {"smiles": "CCOC(=O)c1cc(I)c(Oc2ccc(OC)cc2)c(I)c1", "note": "[Compound 5, Ethyl 3,5-diiodo-4-(4'-methoxyphenoxy)benzoate]", "values": [
      {"measurement": "anti-viral activity", "setting": "viral replication", "result": "inactive"}
    ]},
    {"smiles": "COC(=O)c1cc(I)c(Oc2ccc(OC)cc2Cl)c(I)c1", "note": "[Compound 14, Methyl 3,5-diiodo-4-(2'-chloro-4'methoxyphenoxy)benzoate]", "values": [
      {"measurement": "maximal inhibitory action on the growth of human cancer cells as compared to DIME", "setting": "human cancer cells", "result": "about 25%"}
    ]},
    {"smiles": "COC(=O)c1cc(I)c(Oc2ccc(OC)cc2)c(I)c1", "note": "[DIME, Methyl 3,5-diiodo-4-(4'-methoxyphenoxy)benzoate]", "values": [
      {"measurement": "ill effects on daily oral dosing", "setting": "[1]", "result": "No ill effects"},
      {"measurement": "DIME uptake by normal or stimulated white cells", "setting": "human lymphocytes", "result": "do not take up significant quantities"},
      {"measurement": "MNTC", "setting": "[2]; up to about, read-out: concentration up to which completely nontoxic", "result": "~320", "unit": "µM"},
      {"measurement": "permeation into tumor cells in vivo", "setting": "tumor cells", "result": "selective permeation into tumor cells in vivo"},
      {"measurement": "i.v. serum half-life (t1/2)", "setting": "[3]; i.v., 24.5 mg/kg", "result": "about 4 hours"},
      {"measurement": "area under the blood concentration-time curve, intravenous", "setting": "[3]; intravenous, 24.5 mg/kg, mice, 14C-labeled DIME", "result": 156, "unit": "µg·h/mL"},
      {"measurement": "half-life (t1/2)", "setting": "[3]; mice, 14C-labeled DIME, 126 mg/kg oral, 24.5 mg/kg i.v.", "result": "2 to 2.5", "unit": "h"},
      {"measurement": "area under the blood concentration-time curve, oral", "setting": "[3]; oral, 126 mg/kg, mice, 14C-labeled DIME", "result": 665.28, "unit": "µg·h/mL"},
      {"measurement": "half-life in serum", "setting": "[3]; serum, route and species not stated", "result": "about 4 hours"},
      {"measurement": "MDA-MB-231 tumor volume Day 14 ± SEM", "setting": "[4]; 250 mg/kg by gavage, 5 days per week, control 284.6 ± 42.0, p = 0.06", "result": "172.0 ± 34.3"},
      {"measurement": "MDA-MB-231 tumor volume Day 21 ± SEM", "setting": "[4]; 250 mg/kg by gavage, 5 days per week, control 622.2 ± 58.1, p = 0.02", "result": "285.7 ± 62.4"},
      {"measurement": "MDA-MB-231 tumor volume Day 28 ± SEM", "setting": "[4]; 250 mg/kg by gavage, 5 days per week, control 979.0 ± 154, p = 0.01", "result": "430 ± 85.6"},
      {"measurement": "MDA-MB-231 tumor volume Day 32 ± SEM", "setting": "[4]; 250 mg/kg by gavage, 5 days per week, control 1176.6 ± 222.4, p = 0.01", "result": 543.8},
      {"measurement": "% decrease of tumor volume, Day 14", "setting": "[4]; 250 mg/kg, vs vehicle control", "result": 40, "unit": "%"},
      {"measurement": "% decrease of tumor volume, Day 21", "setting": "[4]; 250 mg/kg, vs vehicle control", "result": 54, "unit": "%"},
      {"measurement": "% decrease of tumor volume, Day 28", "setting": "[4]; 250 mg/kg, vs vehicle control", "result": 56, "unit": "%"},
      {"measurement": "% decrease of tumor volume, Day 32", "setting": "[4]; 250 mg/kg, vs vehicle control", "result": 54, "unit": "%"},
      {"measurement": "reduction of malignant tumor growth", "setting": "[4]; non-optimized treatment regimen", "result": "significant reduction of malignant tumor growth"},
      {"measurement": "binding to microtubules", "setting": "tubulin [5]; shown experimentally", "result": "binding to cellular microtubules"},
      {"measurement": "inhibition of uptake of iodine into the thyroid", "setting": "[6]; rats, as compared to thyroxine", "result": 15, "unit": "%"},
      {"measurement": "reverse transcriptase activity in cell supernatant as a function of DIME concentration (FIG. 1)", "setting": "[7]; cpm, 2 h preincubation, viral growth 3 days", "result": "progressively diminishes as a function of DIME concentration; also recorded: decreases with increased \"DIME\" concentration"},
      {"measurement": "inhibition of HIV replication in human lymphocytes, concentration compared with microtubule disruption in tumor cells", "setting": "[7]; human lymphocytes", "result": "at the same concentration as it disrupts microtubules in tumor cells"},
      {"measurement": "inhibition of tubulin polymerization", "setting": "tubulin [8]", "result": "inhibition of tubulin polymerization"},
      {"measurement": "DIME uptake by HIV infected cells", "setting": "HIV harboring cells", "result": "significant drug uptake"},
      {"measurement": "growth inhibition of non-malignant mouse pituitary tumor", "setting": "[9]", "result": "no inhibitory activity"},
      {"measurement": "anti-viral activity", "setting": "viral replication", "result": "highly active"},
      {"measurement": "induction of apoptosis", "setting": "apoptosis", "result": "induces apoptosis"},
      {"measurement": "metabolic or cell differentiating activity", "setting": "tadpole metamorphosis", "result": "no significant metabolic or cell differentiating activity"}
    ]},
    {"smiles": "COC(=O)Nc1nc2ccc(C(=O)c3cccs3)cc2[nH]1", "note": "[Nocodazole, reference compound]", "values": [
      {"measurement": "MNTC", "setting": "[2]", "result": "0.1 to 1", "unit": "µM"},
      {"measurement": "inhibition at 0.1 µM", "setting": "[7]; Human immunodeficiency virus 1, Lymphocyte, 72 h, read-out: depression of HIV production", "result": 40, "unit": "%"},
      {"measurement": "toxicity (general statement)", "setting": "human white cells", "result": "highly toxic"}
    ]},
    {"smiles": "CC(=O)O[C@H]1C(=O)[C@@]2(C)[C@H]([C@H](OC(=O)c3ccccc3)[C@]3(O)C[C@H](OC(=O)[C@H](O)[C@@H](NC(=O)c4ccccc4)c4ccccc4)C(C)=C1C3(C)C)[C@]1(OC(C)=O)CO[C@@H]1C[C@@H]2O", "note": "[taxol]", "values": [
      {"measurement": "activation of kinase pathways", "setting": "[10]", "result": "can activate both Ras and apoptosis-regulating kinases (ASK1), pathways"}
    ]},
    {"smiles": "NC(Cc1cc(I)c(Oc2cc(I)c(O)c(I)c2)c(I)c1)C(=O)O", "note": "(stereo not shown) [thyroxine, reference compound]", "values": [
      {"measurement": "suppression of iodine uptake by the thyroid", "setting": "[6]; rat, in vivo", "result": "suppresses uptake of iodine by the thyroid"},
      {"measurement": "growth inhibition of non-malignant mouse pituitary tumor", "setting": "[9]", "result": "depress growth"},
      {"measurement": "metabolic or cell differentiating activity", "setting": "tadpole metamorphosis", "result": "induces cell differentiation"}
    ]},
    {"smiles": "CC[C@]1(O)C[C@H]2CN(CCc3c([nH]c4ccccc34)[C@@](C(=O)OC)(c3cc4c(cc3OC)N(C=O)[C@H]3[C@@](O)(C(=O)OC)[C@H](OC(C)=O)[C@]5(CC)C=CCN6CC[C@]43[C@@H]65)C2)C1", "note": "[vincristine, reference compound]", "values": [
      {"measurement": "KD vs tubulin relative to DIME", "setting": "tubulin [5]; may be, relative to DIME", "result": "thousand-fold higher"}
    ]},
    {"smiles": "CC[C@]1(O)C[C@@H]2CN(CCc3c([nH]c4ccccc34)[C@@](C(=O)OC)(c3cc4c(cc3OC)N(C)[C@H]3[C@@](O)(C(N)=O)[C@H](O)[C@]5(CC)C=CCN6CC[C@]43[C@@H]65)C2)C1", "note": "[vindesine, 4-desacetyl vinblastine C-3 carboxamide]", "values": [
      {"measurement": "neurotoxicity in humans", "setting": "[11]", "result": "less neurotoxicity than does vincristine"}
    ]}
  ]
}
